# ChEMBL document CHEMBL5604063, “ASAP - DENV-2 NS2B-NS3 protease fluorescence dose response” (2024)
# Where “and” joins values, the source holds several entries; their conditions need not be identical. Equal values may be shown once.
# Molecular target: Genome polyprotein (dengue virus type 2, UniProt P29990)
# Format: functional, Thailand/16681/1984
# Genome polyprotein, sequence (P29990 1346-1475 limits assumed): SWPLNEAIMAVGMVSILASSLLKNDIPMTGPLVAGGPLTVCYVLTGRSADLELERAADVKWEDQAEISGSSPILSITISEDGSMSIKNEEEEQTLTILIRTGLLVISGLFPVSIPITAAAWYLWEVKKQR
# Genome polyprotein, sequence (P29990 1476-2093 limits assumed): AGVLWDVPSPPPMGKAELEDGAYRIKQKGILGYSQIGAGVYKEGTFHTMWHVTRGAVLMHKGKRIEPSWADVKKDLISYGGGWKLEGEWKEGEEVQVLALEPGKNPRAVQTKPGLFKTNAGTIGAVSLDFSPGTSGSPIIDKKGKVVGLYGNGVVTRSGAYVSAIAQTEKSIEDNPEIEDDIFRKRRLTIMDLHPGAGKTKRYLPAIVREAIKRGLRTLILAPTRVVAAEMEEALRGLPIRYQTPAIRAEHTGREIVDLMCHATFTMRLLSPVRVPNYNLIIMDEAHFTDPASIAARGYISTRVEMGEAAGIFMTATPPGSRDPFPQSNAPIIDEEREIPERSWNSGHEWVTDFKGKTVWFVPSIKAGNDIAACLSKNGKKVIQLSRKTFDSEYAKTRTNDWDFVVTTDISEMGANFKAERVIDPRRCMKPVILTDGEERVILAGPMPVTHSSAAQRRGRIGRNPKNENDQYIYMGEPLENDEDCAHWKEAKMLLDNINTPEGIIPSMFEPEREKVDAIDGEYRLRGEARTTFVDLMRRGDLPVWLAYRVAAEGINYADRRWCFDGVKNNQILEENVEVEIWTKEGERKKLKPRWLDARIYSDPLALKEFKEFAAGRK
row,Structure (SMILES),IC50
1,NCc1cccc(NC(=O)[C@@H](NC(=O)OCc2ccccc2)c2ccc(Br)cc2)c1,88.3 µM and 63.1 µM
2,O=C1C[C@@H](CNC(=O)c2cc(Cl)ccc2NS(=O)(=O)c2ccc(Oc3ccccc3Cl)cc2)CN1,79.3 µM
3,COC1CN(C(=O)c2cc(Cl)ccc2NS(=O)(=O)c2ccc(Oc3ccccc3Cl)cc2)C1,> 99.5 µM
4,CC(C)(C)OC(=O)Cn1ccnc(N2CC[C@@H](CO)C2)c1=O,> 99.5 µM
5,NC[C@H]1C[C@@H](NC(=O)[C@@H](NC(=O)OCc2ccccc2)c2ccc(OCc3ccccc3)cc2)C1,> 99.5 µM
6,CC[C@H](C#N)NC(=O)c1cc(Cl)ccc1NS(=O)(=O)c1ccc(Oc2ccccc2Cl)cc1,42.4 µM
7,O=C(NC[C@H]1CCCO1)c1cc(Cl)ccc1NS(=O)(=O)c1ccc(Oc2ccccc2Cl)cc1,> 99.5 µM
8,O=C(NCc1c[nH]nn1)c1cc(Cl)ccc1NS(=O)(=O)c1ccc(Oc2ccccc2Cl)cc1,29.9 µM
9,Cc1cc(Cl)c(C)c(C(=O)O)c1NS(=O)(=O)c1ccc(Oc2ccccc2Cl)cc1,36.5 µM
10,O=C(N[C@@H](C(=O)NC1CNC1)c1ccc(OCc2ccccc2)cc1)OCc1ccccc1,> 99.5 µM
11,C[C@@H](C(=O)Nc1cccc(CN)c1)c1ccc(OCc2ccccc2)cc1,> 99.5 µM
12,NC[C@H]1CCN1C(=O)[C@@H](NC(=O)OCc1ccccc1)c1ccc(OCc2ccccc2)cc1,> 99.5 µM
13,CC(C)Oc1ccc(S(=O)(=O)Nc2ccc(Cl)cc2C(=O)O)cc1,> 99.5 µM
14,O=C(NC[C@H]1CCOC1)c1cc(Cl)ccc1NS(=O)(=O)c1ccc(Oc2ccccc2Cl)cc1,32.9 µM and 24 µM
15,O=C(O)c1cc(Cl)ccc1CS(=O)(=O)c1ccc(Oc2ccccc2Cl)cc1,> 99.5 µM
16,NCc1cccc(NC(=O)[C@@H](NC(=O)OCc2ccccc2)C2CCCCC2)c1,> 99.5 µM
17,CC(C)(C)OC(=O)NCc1cccc(NC(=O)[C@@H](NC(=O)OCc2ccccc2)c2ccc(O)cc2)c1,> 99.5 µM
18,Cc1cc(C(=O)O)c(NS(=O)(=O)c2ccc(Oc3ccccc3Cl)cc2)cc1F,8.69 µM
19,NCc1cccc(NC(=O)C[C@@H](NC(=O)OCc2ccccc2)c2ccc(OCc3ccccc3)cc2)c1,10.4 µM
20,CCn1cc(-c2ccccc2)nc(N2CC[C@@H](CO)C2)c1=O,> 99.5 µM
21,Cn1cc(C(=O)O)c(NS(=O)(=O)c2ccc(Oc3ccccc3Cl)cc2)n1,> 99.5 µM
22,NCc1cccc(NC(=O)[C@@H](Cc2ccccc2)NC(=O)OCc2ccccc2)c1,> 99.5 µM
23,COc1ccc(S(=O)(=O)Nc2cc(F)c(Cl)cc2C(=O)NCC(C)C)cc1,97 µM
24,NCc1cccc(NC(=O)[C@@H](NC(=O)OCc2ccccc2)c2c(F)cccc2F)c1,> 99.5 µM
25,C[C@@H](N)c1cccc(NC(=O)[C@@H](NC(=O)OCc2ccccc2)c2ccc(OCc3ccccc3)cc2)c1,> 99.5 µM

row,Structure (SMILES),IC50
1,O=C(O)c1cc(Cl)ccc1NS(=O)(=O)c1ccc(Oc2ccccc2)cc1,21.7 µM
2,Cc1cnn(-c2cc(C(=O)O)c(NS(=O)(=O)c3ccc(Oc4ccccc4Cl)cc3)cc2F)c1,6.2 µM
3,CCn1cc(Cl)nc(N2CC[C@@H](CO)C2)c1=O,> 99.5 µM
4,NC(=O)[C@H](c1c[nH]c2ccccc12)N1CCC(c2cnc3ccc[nH]c2-3)CC1,> 99.5 µM
5,O=C(O)c1cc(OC2CCOCC2)c(F)cc1NS(=O)(=O)c1ccc(Oc2ccccc2Cl)cc1,13.7 µM
6,OC[C@H]1CCN(c2cncc(N3CCOCC3)n2)C1,> 99.5 µM
7,C#CCn1ccnc(N2CC[C@H](CO)C2)c1=O,> 99.5 µM
8,O=S(=O)(c1ccc(Oc2ccccc2Cl)cc1)n1ccc2cc(Cl)ccc21,> 99.5 µM
9,Cc1cc(C(=O)O)c(NS(=O)(=O)c2ccc(Oc3ccccc3)cc2)cc1F,24.9 µM
10,CC(C)Oc1cncc(N2CC[C@@H](CO)C2)c1,> 99.5 µM
11,O=C(O)c1cc(Cl)c(Cl)cc1NS(=O)(=O)c1ccc(Oc2ccccc2Cl)cc1,6.6 µM
12,Cn1cc(NS(=O)(=O)c2ccc(Oc3ccccc3Cl)cc2)c(C(=O)O)n1,> 99.5 µM
13,O[C@@H]1CN(Cc2c[nH]c3ccccc23)C[C@H]1c1c[nH]c2ccccc12,> 99.5 µM
14,CCn1ccnc(-n2cc([C@@H]3NC(=O)NC3=O)c3ccccc32)c1=O,> 99.5 µM
15,CCn1cc(-c2ccnc(C)c2)nc(N2CC[C@@H](CO)C2)c1=O,> 99.5 µM
16,NCc1cccc(NC(=O)[C@@H](N)c2ccc(OCc3ccccc3)cc2)c1,> 99.5 µM
17,NCc1cccc(NC(=O)[C@H](NC(=O)OCc2ccccc2)c2ccc(OCc3ccccc3)cc2)c1,8.05 µM
18,NCc1cccc(CNC(=O)[C@@H](NC(=O)OCc2ccccc2)c2ccc(OCc3ccccc3)cc2)c1,21.7 µM and 12 µM
19,O=C(Nc1ccc(Cl)cc1C(=O)O)c1ccc(Oc2ccccc2Cl)cc1,42.5 µM
20,O=C(O)c1cc(Oc2ccc(F)cc2)c(F)cc1NS(=O)(=O)c1ccc(Oc2ccccc2Cl)cc1,3.76 µM
21,CCn1ccc(-c2ccc([C@@H](NC(=O)OCc3ccccc3)C(=O)Nc3cccc(CN)c3)cc2)n1,> 99.5 µM
22,COC(=O)c1cc(Cl)ccc1NS(=O)(=O)c1ccc(Br)cc1,> 99.5 µM
23,C[C@@H](O)CNC(=O)c1cc(Cl)ccc1NS(=O)(=O)c1ccc(Oc2ccccc2Cl)cc1,56.6 µM
24,O=C(O)c1c(NS(=O)(=O)c2ccc(Oc3ccccc3Cl)cc2)ccc(Cl)c1F,18.1 µM
25,CCn1cc(C(=O)NC)nc(N2CC[C@@H](CO)C2)c1=O,> 99.5 µM

row,Structure (SMILES),IC50
1,CC(=O)N[C@@H](C(=O)Nc1cccc(CN)c1)c1ccc(OCc2ccccc2)cc1,> 99.5 µM
2,NCc1cccc(CNC(=O)[C@H](NC(=O)OCc2ccccc2)c2ccc(OCc3ccccc3)cc2)c1,15.3 µM
3,CCn1cc(C#N)nc(N2CC[C@@H](CO)C2)c1=O,> 99.5 µM
4,NCc1cccc(NC(=O)[C@H]2c3ccc(OCc4ccccc4)cc3CCN2C(=O)OCc2ccccc2)c1,> 99.5 µM
5,NCc1cccc(NC(=O)[C@@H]2c3ccsc3CCN2C(=O)OCc2ccccc2)c1,> 99.5 µM
6,O=C(O)c1cc2c(cc1NS(=O)(=O)c1ccc(Oc3ccccc3Cl)cc1)CCC2,7.97 µM
7,CC(C)(C)Oc1ccc(S(=O)(=O)Nc2ccc(Cl)cc2C(=O)O)cc1,> 99.5 µM
8,NCc1cccc(NC(=O)[C@@H](NC(=O)OCc2ccccc2)c2ccc(-c3ccccc3F)cc2)c1,10.4 µM
9,NCc1cc(Cl)ccc1NS(=O)(=O)c1ccc(Oc2ccccc2Cl)cc1,> 99.5 µM
10,COC(=O)c1cc(Cl)ccc1NS(=O)(=O)c1ccc(Oc2ccccc2Cl)cc1,> 99.5 µM
11,O=C(O)[C@H]1CCCC[C@@H]1NS(=O)(=O)c1ccc(Oc2ccccc2Cl)cc1,> 99.5 µM
12,O=C(NCC1CC1)c1cc(Cl)cc(NS(=O)(=O)c2ccc(Oc3ccccc3Cl)cc2)c1,23.5 µM
13,O=c1c(N2CC[C@H](CO)C2)nccn1C1CC1,> 99.5 µM
14,O=C(O)[C@@H]1CC2(CC[C@@H]1NS(=O)(=O)c1ccc(Oc3ccccc3Cl)cc1)CC2,> 99.5 µM
15,O=C(NCC(F)(F)F)c1cc(Cl)c(F)cc1NS(=O)(=O)c1ccc(Oc2ccccc2Cl)cc1,5.18 µM
16,COC(=O)c1cc(Cl)ccc1NS(=O)(=O)c1ccc(Cl)nc1,> 99.5 µM
17,NCc1cccc(NC(=O)CN(C(=O)OCc2ccccc2)c2ccc(OCc3ccccc3)cc2)c1,34.9 µM
18,COc1cc(N[C@@H](C(=O)N2CCc3ccc(OC(F)(F)F)cc32)c2ccc(Cl)cc2)cc(OCCCC(=O)O)c1,14.2 µM
19,NCc1cccc(NC(=O)[C@@H](NC(=O)OCc2ccccc2)c2cccnc2)c1,> 99.5 µM
20,COc1ccc(S(=O)(=O)Nc2ccc(Cl)cc2C(=O)O)cc1,> 99.5 µM
21,O=C(O)c1cc(Cl)ccc1NS(=O)(=O)c1ccc(Br)cc1,> 99.5 µM
22,NCc1cccc(NC(=O)c2cc(OCc3ccccc3)ccc2CNC(=O)OCc2ccccc2)c1,24.8 µM
23,O=C(O)c1cc(Cl)ccc1S(=O)(=O)Nc1ccc(Oc2ccccc2Cl)cc1,16.8 µM
24,O=C(O)[C@@H]1CCCC[C@H]1NS(=O)(=O)c1ccc(Oc2ccccc2Cl)cc1,> 99.5 µM
25,O=C(O)c1cc(F)c(F)cc1NS(=O)(=O)c1ccc(Oc2ccccc2Cl)cc1,11.2 µM

row,Structure (SMILES),IC50
1,O=C(N[C@@H]1CCc2cn[nH]c2C1)c1cccc2c1NC(=O)[C@]1(CCCN1)C2,> 99.5 µM
2,O=C(c1cc(Cl)ccc1NS(=O)(=O)c1ccc(Oc2ccccc2Cl)cc1)N1CCC[C@H](O)C1,63.6 µM
3,CN(C(=O)[C@@H](NC(=O)OCc1ccccc1)c1ccc(OCc2ccccc2)cc1)c1cccc(CN)c1,> 99.5 µM
4,O=C(O)c1nscc1NS(=O)(=O)c1ccc(Oc2ccccc2Cl)cc1,63.2 µM
5,OC[C@H]1CCN(c2ccnc(C(F)F)c2)C1,> 99.5 µM
6,O=C(NCc1cnn(CCO)c1)c1cccc2c1NC(=O)[C@]1(CCCN1)C2,> 99.5 µM
7,O=C(O)c1cc(NS(=O)(=O)c2ccc(Oc3ccccc3Cl)cc2)ccc1Cl,> 99.5 µM
8,CCn1ccnc(N2C[C@@H](OC(=O)OC)[C@H](c3c[nH]c4ccccc34)C2)c1=O,> 99.5 µM
9,Cc1cccc([C@@H](NC(=O)OCc2ccccc2)C(=O)Nc2cccc(CN)c2)n1,> 99.5 µM
10,Cn1cc(CN2CCC(c3c[nH]c4cccnc34)CC2)c2ccccc21,> 99.5 µM
11,CC(C)(C)OC(=O)NCc1cccc(NC(=O)[C@@H](NC(=O)OCc2ccccc2)c2cccc(O)c2)c1,> 99.5 µM
12,Cc1cc(C=O)c(C)n1-c1cccc(C(=O)N2CCN(C)CC2)c1,> 99.5 µM
13,O=C(N[C@@H](C(=O)N[C@H]1CCCNC1)c1ccc(OCc2ccccc2)cc1)OCc1ccccc1,> 99.5 µM
14,O=C(O)[C@@H]1CCCC[C@@H]1NS(=O)(=O)c1ccc(Oc2ccccc2Cl)cc1,> 99.5 µM
15,NCc1ccc(C[C@H](NC(=O)OCc2ccccc2)C(=O)Nc2cccc(CN)c2)cc1,> 99.5 µM
16,COc1ccc(S(=O)(=O)Nc2cc(F)c(Cl)cc2C(=O)O)cc1,> 99.5 µM
17,COc1cc(NS(=O)(=O)c2ccc(Oc3ccccc3Cl)cc2)c(C(=O)O)cc1Cl,8.67 µM
18,C[C@@H](CS(C)(=O)=O)NC(=O)c1cc(Cl)ccc1NS(=O)(=O)c1ccc(Oc2ccccc2Cl)cc1,80.9 µM
19,Cc1cc(C(=O)N[C@@H]2CC[C@@H]3CN(C)C[C@@H]32)sc1C=O,> 99.5 µM
20,Cc1ncc(-c2ccc([C@@H](NC(=O)OCc3ccccc3)C(=O)Nc3cccc(CN)c3)cc2)s1,29.4 µM
21,CCn1ccnc(N(C)[C@@H](CO)Cc2c[nH]c3ccccc23)c1=O,> 99.5 µM
22,OC[C@H]1CCN(c2cnc3ccccc3n2)C1,> 99.5 µM
23,CCn1ccnc(N2C[C@H](c3c[nH]c4ccccc34)[C@H](OC(C)=O)C2)c1=O,> 99.5 µM
24,NCc1ccc2c(c1)N(C(=O)[C@@H](NC(=O)OCc1ccccc1)c1ccc(OCc3ccccc3)cc1)CC2,> 99.5 µM
